In US10988477B2 (Merck Patent GmbH, priority 2018, dated 2021):
pIC50, pKi: −log10 of the molar value. Like-named read-outs stand apart in the source and are kept apart here.

Key:
[1] = target: intracellular GCN2 (phosphorylation of the GCN2 substrate eIF2α) (Homo sapiens, UniProt Q9P2K8); assay: GCN2 cellular inhibition assay (AlphaScreen SureFire P-eIF2α Ser51, borrelidin-treated U2OS cells); type: cell-based
In short: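 Read-out: AlphaScreen SureFire phospho-eIF2α (Ser51) signal in U2OS lysates. Cells get 4-fold compound dilutions (top 40 μM final) plus 10 μM borrelidin, 1 h, 37 °C. Percent inhibition is relative to borrelidin-alone controls.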

GCN2 kinase = GCN2 kinase (Homo sapiens, UniProt Q9P2K8); assay: GCN2 enzyme inhibition assay (Transcreener ADP2 fluorescence polarization); type: biochemical; settings: 280 μM ATP
In short: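 ADP formation read by Transcreener FP after a 1 h, 25 °C kinase reaction containing 280 μM ATP, 200 μM (RS)7 substrate and 4 nM GCN2, pH 7.5 Tris buffer. Compounds (0–8 μM final) were added 10 min before ATP. Percent inhibition gave IC50 and apparent Ki via tight-binding fit.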

[2] = compounds of Formula II, biomarker assay, phosphorylated eIF2α Ser51 in borrelidin-treated U2OS cells
[3] = compounds of Formula II, 4 nM GCN2 kinase
[4] = compounds of Formula IV, biomarker assay, phosphorylated eIF2α Ser51 in borrelidin-treated U2OS cells
[5] = Enzyme activity for compounds of Formula IV, Ki(app), 25° C.

Sequence of GCN2 kinase (Q9P2K8 whole entry): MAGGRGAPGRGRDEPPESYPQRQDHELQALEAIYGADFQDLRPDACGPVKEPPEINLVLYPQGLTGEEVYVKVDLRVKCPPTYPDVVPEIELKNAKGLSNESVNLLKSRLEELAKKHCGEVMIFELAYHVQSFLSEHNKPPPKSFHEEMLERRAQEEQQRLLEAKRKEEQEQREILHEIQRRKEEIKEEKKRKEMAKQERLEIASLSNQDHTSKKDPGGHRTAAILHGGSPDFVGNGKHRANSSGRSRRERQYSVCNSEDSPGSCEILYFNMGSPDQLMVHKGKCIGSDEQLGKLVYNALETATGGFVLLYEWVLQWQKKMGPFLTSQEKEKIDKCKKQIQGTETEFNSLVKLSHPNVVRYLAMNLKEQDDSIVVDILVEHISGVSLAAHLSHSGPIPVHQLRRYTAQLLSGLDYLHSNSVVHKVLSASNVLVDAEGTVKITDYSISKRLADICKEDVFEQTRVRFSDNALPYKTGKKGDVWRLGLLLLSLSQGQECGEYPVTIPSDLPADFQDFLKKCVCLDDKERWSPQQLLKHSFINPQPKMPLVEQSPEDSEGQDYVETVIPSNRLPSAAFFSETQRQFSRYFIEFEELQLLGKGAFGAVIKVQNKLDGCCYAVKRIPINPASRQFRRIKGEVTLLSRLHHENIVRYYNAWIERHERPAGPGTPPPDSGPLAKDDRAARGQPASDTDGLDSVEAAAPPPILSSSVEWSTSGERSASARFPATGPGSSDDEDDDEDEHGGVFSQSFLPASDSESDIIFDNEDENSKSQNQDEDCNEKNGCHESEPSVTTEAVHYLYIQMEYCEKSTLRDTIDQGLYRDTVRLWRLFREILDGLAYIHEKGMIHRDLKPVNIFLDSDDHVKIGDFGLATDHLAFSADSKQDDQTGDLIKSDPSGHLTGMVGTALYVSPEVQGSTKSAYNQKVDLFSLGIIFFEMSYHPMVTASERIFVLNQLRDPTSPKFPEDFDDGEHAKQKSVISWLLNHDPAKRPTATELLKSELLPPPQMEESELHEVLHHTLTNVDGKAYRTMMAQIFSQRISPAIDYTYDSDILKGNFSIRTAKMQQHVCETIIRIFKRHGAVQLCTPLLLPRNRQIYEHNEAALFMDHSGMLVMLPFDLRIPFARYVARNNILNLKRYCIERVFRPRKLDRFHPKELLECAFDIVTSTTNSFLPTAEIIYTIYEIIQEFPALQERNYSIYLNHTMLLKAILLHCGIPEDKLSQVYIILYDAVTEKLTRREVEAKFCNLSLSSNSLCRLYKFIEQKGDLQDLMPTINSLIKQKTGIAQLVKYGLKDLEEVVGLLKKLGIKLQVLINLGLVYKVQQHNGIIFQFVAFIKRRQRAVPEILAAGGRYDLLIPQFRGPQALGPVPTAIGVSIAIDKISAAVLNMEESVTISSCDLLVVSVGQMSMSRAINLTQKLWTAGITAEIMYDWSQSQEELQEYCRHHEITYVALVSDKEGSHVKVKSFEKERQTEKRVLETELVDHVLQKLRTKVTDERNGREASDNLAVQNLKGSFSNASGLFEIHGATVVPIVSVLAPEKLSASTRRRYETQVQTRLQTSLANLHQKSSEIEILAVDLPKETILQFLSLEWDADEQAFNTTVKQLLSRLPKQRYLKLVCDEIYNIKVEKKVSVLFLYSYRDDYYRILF
Sequence of intracellular GCN2 (phosphorylation of the GCN2 substrate eIF2α) (Q9P2K8 whole entry): as above

| Compound | pIC50 [1, 2] | pKi (GCN2 kinase; [3]) | pIC50 [1, 4] | pKi (GCN2 kinase; [5]) | also measured |
| --- | --- | --- | --- | --- | --- |
| NS(=O)(=O)NCC1CCCN(c2cc(-c3cnc4ccc(C(F)F)nn34)ncn2)C1 (centres unmarked) [II-202, 1-((1-(6-(6-(Difluoromethyl)imidazo[1,2-b]pyridazin-3-yl)pyrimidin-4-yl)piperidin-3-yl)methyl)sulfuric diamide] | > 6.30 | > 8.00 |  |  |  |
| FC(F)(F)c1ccc2ncc(-c3ccnc(N4CCOC(c5cn[nH]c5)C4)c3)n2n1 (centres unmarked) [II-225, 2-(1H-Pyrazol-4-yl)-4-(4-(6-(trifluoromethyl)imidazo[1,2-b]pyridazin-3-yl)pyridin-2-yl)morpholine] | > 6.30 | > 8.00 |  |  |  |
| CC(=O)N1CCN(c2cccc(-c3cnc4cnc(-n5cccn5)cn34)n2)CC1 [IV-209, 1-(4-(6-(6-(1H-Pyrazol-1-yl)imidazo[1,2-a]pyrazin-3-yl)pyridin-2-yl)piperazin-1-yl)ethan-1-one] |  |  | 5.30 to 6.30 | > 8.00 |  |
| FC(F)(F)c1cn2c(-c3nccc(N4CCOC(c5cn[nH]c5)C4)n3)cnc2s1 (centres unmarked) [Compound V-15, 2-(1H-Pyrazol-4-yl)-4-[2-[2-(trifluoromethyl)imidazo[2,1-b]thiazol-5-yl]pyrimidin-4-yl]morpholine] |  |  |  |  | pIC50 ([1]; compounds of Formula V, U2OS cells, 10 μM borrelidin, 1 h, read-out: GCN2 Biomarker (IC50)): > 6.30; pKi (GCN2 kinase; compounds of Formula V, 4 nM GCN2 kinase): > 8.00 |
| CS(=O)(=O)N1CCC(c2cc(-c3cnc4ccc(C(F)F)nn34)ncn2)C1 (centres unmarked) [II-250, 6-(Difluoromethyl)-3-(6-(1-(methylsulfonyl)pyrrolidin-3-yl)pyrimidin-4-yl)imidazo[1,2-b]pyridazine] | < 5.30 | 6.00 to 8.00 |  |  |  |
| CS(=O)(=O)NCC1CN(c2cc(-c3cnc4ccc(C(F)F)nn34)ccn2)CCO1 (centres unmarked) [II-149, N-((4-(4-(6-(Difluoromethyl)imidazo[1,2-b]pyridazin-3-yl)pyridin-2-yl)morpholin-2-yl)methyl)methanesulfonamide] | > 6.30 | > 8.00 |  |  |  |
| CS(=O)(=O)N1CC2(CCCN(c3cc(-c4cnc5ccc(C(F)F)nn45)ncn3)C2)C1 [II-281, 6-(Difluoromethyl)-3-(6-(2-(methylsulfonyl)-2,6-diazaspiro[3.5]nonan-6-yl)pyrimidin-4-yl)imidazo[1,2-b]pyridazine] | > 6.30 | > 8.00 |  |  |  |
| C[C@@H]1CC[C@H](CNS(C)(=O)=O)CN1c1cc(-c2cnc3ccc(C(F)F)nn23)ncn1 [II-247, N-(((3S,6R)-1-(6-(6-(Difluoromethyl)imidazo[1,2-b]pyridazin-3-yl)pyrimidin-4-yl)-6-methylpiperidin-3-yl)methyl)methanesulfonamide] | > 6.30 | > 8.00 |  |  |  |
| NC(=O)CC1CCCN(c2cc(-c3cnc4ccc(C(F)F)nn34)ccn2)C1 (centres unmarked) [II-145, 2-(1-(4-(6-(Difluoromethyl)imidazo[1,2-b]pyridazin-3-yl)pyridin-2-yl)piperidin-3-yl)acetamide] | 5.30 to 6.30 | 6.00 to 8.00 |  |  |  |
| CC(=O)N1CCN(c2ccnc(-c3cnc4cnc(C5CC5)cn34)n2)CC1 [IV-33, 1-(4-(2-(6-Cyclopropylimidazo[1,2-a]pyrazin-3-yl)pyrimidin-4-yl)piperazin-1-yl)ethan-1-one] |  |  | < 5.30 | 6.00 to 7.00 |  |
| C[C@@H]1CN(c2ccnc(-c3cnc4cnc(Cl)cn34)n2)C[C@H](c2cn[nH]c2)N1 (racemic) [IV-206, Cis-6-Chloro-3-(4-(3-methyl-5-(H-pyrazol-4-yl)piperazin-1-yl)pyrimidin-2-yl)imidazo[1,2-a]pyrazine] |  |  | 5.30 to 6.30 | 7.00 to 8.00 |  |
| CC1CC(CNS(C)(=O)=O)C(C)N(c2cc(-c3cnc4ccc(C(F)F)nn34)ncn2)C1 (single isomer, unassigned) [II-546, N-((1-(6-(6-(Difluoromethyl)imidazo[1,2-b]pyridazin-3-yl)pyrimidin-4-yl)-2,5-dimethylpiperidin-3-yl)methyl)methanesulfonamide] | > 6.30 | > 8.00 |  |  |  |
| NS(=O)(=O)NCC1CN(c2cc(-c3cnc4ccc(C(F)F)nn34)ncn2)CCO1 (centres unmarked) [II-347, N-((4-(6-(6-(Difluoromethyl)imidazo[1,2-b]pyridazin-3-yl)pyrimidin-4-yl)morpholin-2-yl)methyl)sulfuric diamide] | > 6.30 | > 8.00 |  |  |  |
| FC(F)(F)c1cn2c(-c3nccc(N4CCC(c5cn[nH]c5)C4)n3)cnc2cn1 (single isomer, unassigned) [IV-540, 3-(4-(3-(1H-Pyrazol-4-yl)pyrrolidin-1-yl)pyrimidin-2-yl)-6-(trifluoromethyl)imidazo[1,2-a]pyrazine] |  |  | 5.30 to 6.30 | > 8.00 |  |
| CC1CN(c2ccnc(-c3cnc4cnc(C(F)(F)F)cn34)n2)C(C)C(c2cn[nH]c2)O1 (centres unmarked) [IV-416, 3,6-Dimethyl-2-(1H-pyrazol-4-yl)-4-(2-(6-(trifluoromethyl)imidazo[1,2-a]pyrazin-3-yl)pyrimidin-4-yl)morpholine] |  |  | 5.30 to 6.30 | > 8.00 |  |
| Cc1n[nH]cc1[C@H]1C[C@@H](C)CN(c2nccc(-c3cnc4cnc(C(F)(F)F)cn34)n2)C1 [IV-758, 3-(2-((3R,5R)-3-methyl-5-(3-methyl-1H-pyrazol-4-yl)piperidin-1-yl)pyrimidin-4-yl)-6-(trifluoromethyl)imidazo[1,2-a]pyrazine] |  |  | > 6.30 |  | pIC50 (GCN2 kinase; compounds of Formula IV, 4 nM GCN2 kinase): 6.00 to 8.00 |
| CCN1CCN(c2cc(-c3cnc4ccc(C(F)F)nn34)ncn2)C(C)C1CNS(C)(=O)=O (centres unmarked) [II-482, N-((4-(6-(6-(difluoromethyl)imidazo[12-b]pyridazin-3-yl)pyrimidin-4-yl)-1-ethyl-3-methylpiperazin-2-yl)methyl)methanesulfonamide] | > 6.30 | > 8.00 |  |  |  |
| O=C(NCCO)N1CCC(c2cc(-c3cnc4ccc(C(F)F)nn34)ncn2)C1 (centres unmarked) [II-254, 3-(6-(6-(Difluoromethyl)imidazo[1,2-b]pyridazin-3-yl)pyrimidin-4-yl)-N-(2-hydroxyethyl)pyrrolidine-1-carboxamide] | < 5.30 | 6.00 to 8.00 |  |  |  |
| CC1C(CNS(C)(=O)=O)CCCN1c1cc(-c2cnc3ccc(C(F)F)nn23)ncn1 (single isomer, unassigned) [II-263, N-((1-(6-(6-(Difluoromethyl)imidazo[1,2-b]pyridazin-3-yl)pyrimidin-4-yl)-2-methylpiperidin-3-yl)methyl)methanesulfonamide] | 5.30 to 6.30 | 6.00 to 8.00 |  |  |  |
| CS(=O)(=O)NCC1CCN(c2ccnc(-c3cnc4cnc(Br)cn34)n2)C1 (centres unmarked) [IV-27, N-((1-(2-(6-Bromoimidazo[1,2-a]pyrazin-3-yl)pyrimidin-4-yl)pyrrolidin-3-yl)methyl)methanesulfonamide] |  |  | 5.30 to 6.30 | 7.00 to 8.00 |  |
| CC1C(CNS(C)(=O)=O)N(C)CCN1c1cc(-c2cnc3ccc(C(F)F)nn23)ncn1 (mixture of isomers) [II-312, N-((4-(6-(6-(Difluoromethyl)imidazo[1,2-b]pyridazin-3-yl)pyrimidin-4-yl)-1,3-dimethylpiperazin-2-yl)methyl)methanesulfonamide] | > 6.30 | > 8.00 |  |  |  |
| Cc1nn(C)cc1[C@@H]1CN(c2cc(-c3cnc4ccc(C(F)(F)F)nn34)ncn2)C[C@H](C)O1 [II-759, (2R,6S)-2-(1,3-dimethyl-1H-pyrazol-4-yl)-6-methyl-4-(6-(6-(trifluoromethyl)imidazo[1,2-b]pyridazin-3-yl)pyrimidin-4-yl)morpholine] | < 5.30 |  |  |  | pIC50 (GCN2 kinase; [3]): 6.00 to 8.00 |
| CC1C(NS(C)(=O)=O)CCCN1c1cc(-c2cnc3ccc(C(F)F)nn23)ncn1 (single isomer, unassigned) [II-374, N-[1-[6-[6-(Difluoromethyl)imidazo[1,2-b]pyridazin-3-yl]pyrimidin-4-yl]-2-methyl-3-piperidyl]methanesulfonamide] | 5.30 to 6.30 | 6.00 to 8.00 |  |  |  |
| CS(=O)(=O)NC[C@@H]1CN(c2nc(-c3cnc4cnc(C(F)F)cn34)ns2)CCO1 [IV-703, (S)—N-((4-(3-(6-(difluoromethyl)imidazo[1,2-a]pyrazin-3-yl)-1,2,4-thiadiazol-5-yl)morpholin-2-yl)methyl)methanesulfonamide] |  |  | < 5.30 | 6.00 to 7.00 |  |
| FC(F)c1cn2c(-c3nccc(N4CCCC(c5c[nH]cn5)C4)n3)cnc2cn1 (centres unmarked) [IV-53, 3-(4-(3-(1H-Imidazol-4-yl)piperidin-1-yl)pyrimidin-2-yl)-6-(difluoromethyl)imidazo[1,2-a]pyrazine] |  |  | 5.30 to 6.30 | 7.00 to 8.00 |  |
| C[C@@H]1[C@@H](CNS(C)(=O)=O)N(C2CC2)CCN1c1cc(-c2cnc3ccc(C(F)F)nn23)ncn1 [II-770, N-(((2R,3R)-1-cyclopropyl-4-(6-(6-(difluoromethyl)imidazo[1,2-b]pyridazin-3-yl)pyrimidin-4-yl)-3-methylpiperazin-2-yl)methyl)methanesulfonamide] | 5.30 to 6.30 |  |  |  | pIC50 (GCN2 kinase; [3]): 6.00 to 8.00 |
| CC1CN(c2ccnc(-c3cnc4cnc(Cl)cn34)n2)C(C)C(c2cn[nH]c2)N1 (single isomer, unassigned) [IV-247, 6-Chloro-3-(4-(2,5-dimethyl-3-(1H-pyrazol-4-yl)piperazin-1-yl)pyrimidin-2-yl)imidazo[1,2-a]pyrazine] |  |  | > 6.30 | > 8.00 |  |
| CS(C)(=O)=NC[C@@H]1CN(c2cc(-c3cnc4ccc(C(F)(F)F)nn34)ncn2)CCO1 [II-406, (S)-Dimethyl(((4-(6-(6-(trifluoromethyl)imidazo[1,2-b]pyridazin-3-yl)pyrimidin-4-yl)morpholin-2-yl)methyl)imino)-λ^6-sulfanone] | < 5.30 | < 6.00 |  |  |  |
